These are literature values, as cited in US11786452B2, “Method for dyeing keratinous material” (Henkel AG & Co. KGaA, priority 2019, dated 2023).

For the series the following is noted: 25° C.

`CCN(Cc1cccc(S(=O)(=O)[O-])c1)c1ccc(C(=C2C=CC(=[N+](CC)Cc3cccc(S(=O)(=O)[O-])c3)C=C2)c2ccccc2S(=O)(=O)[O-])cc1.[Na+].[Na+]` [Acid Blue 9]: the solubility in water entry is listed as “more than 20 % by weight”.

Consider `O=S(=O)([O-])c1ccc(N=Nc2c(O)ccc3ccccc23)cc1.[Na+]` [Acid Orange 7, sodium salt of 4-[(2-hydroxy-1-naphthyl)azo]benzene sulphonate], for which the solubility in water result is listed as “more than 7 g/L”.

In the case of `Nc1cc(S(=O)(=O)[O-])cc2cc(S(=O)(=O)[O-])c(N=Nc3ccccc3)c(O)c12.[Na+].[Na+]` [Acid Red 33, diantrium salt of 5-amino-4-hydroxy-3-(phenylazo)-naphthalene-2,7-disulphonate], the solubility in water was 2500 µg/mL.

Take `O=C([O-])c1c(Cl)c(Cl)c(Cl)c(Cl)c1-c1c2c(Br)cc(=O)c(Br)c-2oc2c(Br)c(O)cc(Br)c12.O=C([O-])c1c(Cl)c(Cl)c(Cl)c(Cl)c1-c1c2c(Br)cc(=O)c(Br)c-2oc2c(Br)c(O)cc(Br)c12.[Na+].[Na+]` [Acid Red 92, disodium salt of 3,4,5,6-tetrachloro-2-(1,4,5,8-tetrabromo-6-hydroxy-3-oxoxanthen-9-yl)benzoic acid]: the solubility in water result was “greater than 10 g/L”.

As to `O=C([O-])C1=NN(c2ccc(S(=O)(=O)[O-])cc2)C(=O)C1N=Nc1ccc(S(=O)(=O)[O-])cc1.[Na+].[Na+].[Na+]` (centres unmarked) [Acid Yellow 23, trisodium salt of 4,5-dihydro-5-oxo-1-(4-sulfophenyl)-4-((4-sulfophenyl)azo)-1H-pyrazole-3-carboxylic acid], the “solubility in water” value is on record as “highly soluble”.
